Test results reported in patent publication US20140005269A1, “POLYMERIC MATRIX OF POLYMER-LIPID NANOPARTICLES AS A PHARMACEUTICAL DOSAGE FORM” (priority 2010, published 2014).

Assay: In vitro drug release, USP 32 apparatus II dissolution
Type: physicochemical
Settings: pH 6.8 (standard buffer KH2PO4/NaOH)
Procedure: Drug release was assessed using a USP 32 apparatus II dissolution system (Erweka DT 700, Erweka GmbH, Heusenstamm, Germany). Temperature and stirring rate was at 37±0.5° C. and 50 rpm respectively while the dissolution media was 0.1N HCl, buffers pH 1.5 and 4.5. Samples were withdrawn at predetermined intervals and replaced with the same volume of fresh medium, and the quantity of L-dopa released was quantified using UV spectroscopy. In vitro drug release studies were also undertaken for E3 matrices formulated from IPBs in varying normalities of acetic acid in buffer pH 1.5 (standard buffer KCl/HCl), pH 4.5 (0.025M KH2PO4/H2PO4) and pH 6.8 (standard buffer KH2PO4/NaOH) was employed to observe the behavior of the matrices and not for drug release as the model drug L-dopa was unstable at such pH values.
The incorporation of polymer-lipid nanoparticles into the IPB was undertaken as described earlier via direct compression. However, the L-dopa-loaded polymer-lipid nanoparticles was incorporated instead of L-dopa alone while the in vitro drug release was assessed as described earlier.

For `N[C@@H](Cc1ccc(O)c(O)c1)C(=O)O` [L-dopa, 3-(3,4-dihydroxyphenyl)-L-alanine], the “stability of the model drug in dissolution medium” value was “unstable”.
